{"source": "patent US20220048961A1", "about": "“TRANSFERRIN RECEPTOR TARGETING PEPTIDES” (FRED HUTCHINSON CANCER RESEARCH CENTER, priority 2018, published 2022)", "system": "neurotensin receptor (CRE-driven luciferase)", "experiment": "CRE-luciferase reporter mice, whole-animal brain luminescence (IVIS)", "format": "in vivo", "conditions": "1.68 mg rolipram and 0.84 mg forskolin given together IP, luciferin four hours after, FIG. 31"}
{"smiles": "COc1ccc(C2CNC(=O)C2)cc1OC1CCCC1", "note": "(stereo not shown) [rolipram]", "values": [{"measurement": "CRE-driven luciferase induction (brain luminescence), positive control", "value": "high levels of luminescence from the animal's brain"}]}
